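The compound was tested at five concentrations on cells cultured in 96-well plates, with a 48-hour exposure period. GI50 = concentration required for 50% inhibition of growth.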 Calls of active or inactive are those of the source. Rule as the data show it: active = GI50 up to about 1.1 µM and inactive = higher.
Experiments:
Test in all cases: inhibition of tumour cell growth, NCI panel, 48 h
MCF7 = tested on: MCF7
SK-MEL-5 = tested on: SK-MEL-5
IGROV-1 = tested on: IGROV-1
SF-268 = tested on: SF-268
MDA-MB-231 = tested on: MDA-MB-231
RPMI-8226 = tested on: RPMI-8226
OVCAR-4 = tested on: OVCAR-4
TK-10 = tested on: TK-10
HT-29 = tested on: HT-29
HCT-15 = tested on: HCT-15
Hs-578T = tested on: Hs-578T
PC-3 = tested on: PC-3
SR = tested on: SR
UACC-62 = tested on: UACC-62
OVCAR-5 = tested on: OVCAR-5
UO-31 = tested on: UO-31
786-0 = tested on: 786-0
SK-MEL-2 = tested on: SK-MEL-2
RXF 393 = tested on: RXF 393
BT-549 = tested on: BT-549

| Compound | GI50 (MCF7) | GI50 (SK-MEL-5) | GI50 (IGROV-1) | GI50 (SF-268) | GI50 (MDA-MB-231) | GI50 (RPMI-8226) | GI50 (OVCAR-4) | GI50 (TK-10) | GI50 (HT-29) | GI50 (HCT-15) [µM] | GI50 (Hs-578T) | GI50 (PC-3) | GI50 (SR) | GI50 (UACC-62) | GI50 (OVCAR-5) | GI50 (UO-31) | GI50 (786-0) | GI50 (SK-MEL-2) | GI50 (RXF 393) | GI50 (BT-549) |
| --- | --- | --- | --- | --- | --- | --- | --- | --- | --- | --- | --- | --- | --- | --- | --- | --- | --- | --- | --- | --- |
| CCC1(O)CC(OC2CC(N(C)C)C(OC3CC(O)C(OC4CCC(=O)C(C)O4)C(C)O3)C(C)O2)c2c(O)c3c(c(O)c2C1C(=O)OC)C(=O)c1cccc(O)c1C3=O (configuration not stated) | 0.01 µM (active) | 0.00405 µM (active) | 0.00178 µM (active) | 0.0316 µM (active) | 0.0181 µM (active) | 0.00181 µM (active) | 0.01 µM (active) | 0.015 µM (active) | 0.00445 µM (active) | 0.00719 | 0.00221 µM (active) | 0.00502 µM (active) | 0.00897 µM (active) | 0.0101 µM (active) | 0.00575 µM (active) | 0.00508 µM (active) | 0.0016 µM (active) | 0.0103 µM (active) |  |  |
| O=c1c2ccccc2nc(N/N=C/c2ccc(Cl)cc2)n1-c1ccccc1 | > 100 µM (inactive) | > 100 µM (inactive) | > 100 µM (inactive) | 80.2 µM (inactive) | 93.3 µM (inactive) |  | 21.1 µM (inactive) | > 100 µM (inactive) | > 100 µM (inactive) | 89.9 |  | 49.5 µM (inactive) | > 100 µM (inactive) | > 100 µM (inactive) | > 100 µM (inactive) | 62.4 µM (inactive) | > 100 µM (inactive) | 17.5 µM (inactive) | 87.1 µM (inactive) |  |
| COc1cc(/C=C/c2ccc(O)c(OC)c2)cc(OC)c1 | 26.2 µM (inactive) | 23.9 µM (inactive) | 39.9 µM (inactive) | 34.4 µM (inactive) |  | 30.3 µM (inactive) | 41.8 µM (inactive) | 20.2 µM (inactive) | 30.8 µM (inactive) | 14.3 | 14.2 µM (inactive) | 10.3 µM (inactive) | 25.8 µM (inactive) |  | 31.6 µM (inactive) | 20 µM (inactive) | 45.5 µM (inactive) |  | 22.6 µM (inactive) |  |
| CC/C=C/c1cc2c(cc1O)CCC1C2CC[C@@]2(C)C1CC[C@@H]2O (some centres not stated) | 1.08 µM (active) | 1.56 µM (inactive) | 4.37 µM (inactive) | 10.2 µM (inactive) | 3.53 µM (inactive) | 1.89 µM (inactive) | 19.9 µM (inactive) | 1.03 µM (active) | 7.93 µM (inactive) | 4.33 | 1.65 µM (inactive) | 3.49 µM (inactive) | 0.34 µM (active) |  | 12.5 µM (inactive) | 6.03 µM (inactive) | 2.34 µM (inactive) | 1.21 µM (inactive) | 1.08 µM (active) |  |
| NC(=S)N1N=C2c3ccccc3CC[C@H]2[C@@H]1c1cccs1 |  |  | 37.2 µM (inactive) | 40.6 µM (inactive) |  | 37.9 µM (inactive) | 45.2 µM (inactive) | 64.6 µM (inactive) | 24.1 µM (inactive) | 21.3 |  |  | 4.68 µM (inactive) | 33.7 µM (inactive) | > 100 µM (inactive) | 27.5 µM (inactive) | 43.9 µM (inactive) | 22.1 µM (inactive) | 16.8 µM (inactive) |  |
| CCCC[C@H](CCc1ccccc1)N(C(=O)OC)N1CCC[C@H]1COC |  | 18.3 µM (inactive) | 20.9 µM (inactive) | 19.5 µM (inactive) |  | 31.6 µM (inactive) | 17.5 µM (inactive) | 26.4 µM (inactive) | 15.1 µM (inactive) |  |  |  | 24.3 µM (inactive) | 16 µM (inactive) | 17.8 µM (inactive) | 16.7 µM (inactive) | 21.4 µM (inactive) | 18.5 µM (inactive) | 18.1 µM (inactive) |  |
| OCC(O)COCn1cc(Cn2ncc3c(SCc4ccccc4)ncnc32)nn1 (configuration not stated) | > 100 µM (inactive) | > 100 µM (inactive) | > 100 µM (inactive) | 51.4 µM (inactive) | > 100 µM (inactive) | > 100 µM (inactive) | > 100 µM (inactive) | > 100 µM (inactive) | > 100 µM (inactive) | > 100 |  | > 100 µM (inactive) |  | > 100 µM (inactive) | > 100 µM (inactive) | > 100 µM (inactive) | > 100 µM (inactive) | > 100 µM (inactive) |  | > 100 µM (inactive) |
| COc1cc(S(=O)(=O)Nc2nc(-c3ccc(N4C(=O)CSC4c4cccs4)cc3)cs2)ccc1Cl (configuration not stated) | 43.5 µM (inactive) | > 100 µM (inactive) | 34.3 µM (inactive) | 37.6 µM (inactive) | > 100 µM (inactive) |  | 31.3 µM (inactive) | > 100 µM (inactive) | > 100 µM (inactive) | 22.8 | 97.1 µM (inactive) | 88.3 µM (inactive) | 28.9 µM (inactive) | 83.6 µM (inactive) | > 100 µM (inactive) | 22.6 µM (inactive) | 81.1 µM (inactive) | 57.5 µM (inactive) | 24.1 µM (inactive) |  |
